For 15 compounds, IC50 results are on record in patent publication US12202835B2, “Substituted aromatic ring-linked dioxinoquinazolines and dioxinoquinolines as kinase inhibitors” (BEIJING SCITECH-MQ PHARMACEUTICALS LIMITED, priority 2018, dated 2025).

By IC50 is commonly meant the concentration at which inhibition is half-maximal.

The target in one assay is c-MET kinase (Homo sapiens (Human), UniProt P08581). The assay can be described thus: Assay of small molecular compounds for inhibiting the activity of c-MET kinase (LANCE TR-FRET). Conditions: read-out: CMET IC50. The format is biochemical. The method in brief:
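Eleven final concentrations from 2500 nM down to 0.042 nM, in 4% DMSO, were tested against human c-MET (2× stock 2 nM), with compound and enzyme premixed for 5 min. The phosphorylation reaction used 4× stock of 400 nM ULight-JAK-1 peptide and 40 μM ATP for 60 min at room temperature, then stop and detection steps. TR-FRET percent inhibition against positive and negative controls gave the IC50.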
On the technique in general: TR-FRET usually uses a lanthanide donor and a delayed reading to cut background.

For another assay, the system named is MHCC97H cells. The assay can be described thus: Assay for inhibiting the proliferation of MHCC97H cells (CCK-8). It is filed as cell-based. Conditions: Homo sapiens. An outline of the steps: (§1)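 Cells seeded in 96-well plates overnight, then exposed 72 h to 9 three-fold dilutions of compound (0.25% DMSO final). Viability by CCK-8 (1-2 h at 37° C., OD 450 nm), survival normalized to untreated and cell-free blanks; IC50 by curve fitting.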

The next assay deals with Ba/F3-AXL cells. Nature of the assay: Assay for inhibiting the proliferation of Ba/F3-AXL cells (CCK-8). It is filed as cell-based. The settings on record: 72 hours of incubation, medium with 100 ng/mL hGas6, CCK-8. The protocol:
The values were then imported into Graphpad Prism 5 software for curve fitting, and IC50 was calculated.

The test system of a further assay is Ba/F3 LMNA-NTRK1 cells. Nature of the assay: Assay for inhibiting the proliferation of Ba/F3 LMNA-NTRK1 cells (CCK-8). It is filed as cell-based. The settings on record: Mus musculus, BaF3. An outline of the steps:
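Viability was read as absorbance at 450 nm following 1–2 h CCK-8 incubation at 37 °C, relative to control and blank wells.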

For another assay, the system named is EBC1 cells. Nature of the assay: Assay for inhibiting the proliferation of EBC1 cells (CCK-8). The format is cell-based. Conditions: Homo sapiens, EBC-1. An outline of the steps:
as §1

The structures appear in SMILES notation.

c-MET kinase, sequence (P08581 25-1390): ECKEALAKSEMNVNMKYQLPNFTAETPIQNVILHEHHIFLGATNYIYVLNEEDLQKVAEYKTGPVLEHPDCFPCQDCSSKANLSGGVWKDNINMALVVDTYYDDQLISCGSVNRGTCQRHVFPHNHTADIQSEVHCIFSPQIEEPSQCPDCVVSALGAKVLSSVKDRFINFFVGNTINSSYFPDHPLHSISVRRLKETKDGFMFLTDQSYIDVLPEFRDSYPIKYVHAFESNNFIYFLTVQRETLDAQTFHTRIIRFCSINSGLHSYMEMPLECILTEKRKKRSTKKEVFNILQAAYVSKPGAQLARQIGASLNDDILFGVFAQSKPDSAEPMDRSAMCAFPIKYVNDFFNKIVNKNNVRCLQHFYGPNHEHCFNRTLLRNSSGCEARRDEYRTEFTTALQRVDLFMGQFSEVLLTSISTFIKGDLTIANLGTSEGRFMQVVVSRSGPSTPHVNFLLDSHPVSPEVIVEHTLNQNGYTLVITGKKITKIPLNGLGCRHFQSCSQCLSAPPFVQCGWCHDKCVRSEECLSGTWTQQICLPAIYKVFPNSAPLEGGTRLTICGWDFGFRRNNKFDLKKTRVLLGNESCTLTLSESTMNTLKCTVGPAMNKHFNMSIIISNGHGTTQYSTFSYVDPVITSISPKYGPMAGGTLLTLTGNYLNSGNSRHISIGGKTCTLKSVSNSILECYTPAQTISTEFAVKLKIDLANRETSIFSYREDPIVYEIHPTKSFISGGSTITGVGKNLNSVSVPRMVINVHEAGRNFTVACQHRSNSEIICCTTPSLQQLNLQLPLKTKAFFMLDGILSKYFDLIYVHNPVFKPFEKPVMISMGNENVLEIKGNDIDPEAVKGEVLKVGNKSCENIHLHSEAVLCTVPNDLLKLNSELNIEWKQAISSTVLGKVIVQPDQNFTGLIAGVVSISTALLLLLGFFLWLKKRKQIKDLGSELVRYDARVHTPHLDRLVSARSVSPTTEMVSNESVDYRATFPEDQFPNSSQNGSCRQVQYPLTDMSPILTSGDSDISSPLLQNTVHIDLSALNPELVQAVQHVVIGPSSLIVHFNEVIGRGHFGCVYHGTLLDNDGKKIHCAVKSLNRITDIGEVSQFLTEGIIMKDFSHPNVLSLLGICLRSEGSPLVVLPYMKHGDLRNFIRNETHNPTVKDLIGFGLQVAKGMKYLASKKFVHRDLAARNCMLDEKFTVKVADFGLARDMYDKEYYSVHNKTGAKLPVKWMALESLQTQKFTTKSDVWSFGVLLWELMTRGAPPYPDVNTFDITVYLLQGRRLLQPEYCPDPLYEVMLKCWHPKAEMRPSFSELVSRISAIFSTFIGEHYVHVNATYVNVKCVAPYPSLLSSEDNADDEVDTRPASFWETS

For `CCOc1ccn(-c2ccc(F)cc2)c(=O)c1C(=O)Nc1ccc(Oc2ccnc3cc(OCCCN(C)C4CCC4)c4c(c23)OCCO4)c(F)c1` [Example 71, N-(4-((5-(3-(cyclobutyl(methyl)amino)propoxy)-2,3-dihydro-[1,4]dioxino[2,3-f]quinolin-10-yl)oxy)-3-fluorophenyl)-4-ethoxy-1-(4-fluorophenyl)-2-oxo-1,2-dihydropyridine-3-carboxamide], the IC50 at c-MET kinase is no more than 50 nM; in the assay with MHCC97H cells, no more than 50 nM; in the assay with Ba/F3-AXL cells, less than 50 nM; in the assay on Ba/F3 LMNA-NTRK1 cells, less than 50 nM; with EBC1 cells it was no more than 50 nM.

With `CCOc1ccn(-c2ccc(F)cc2)c(=O)c1C(=O)Nc1ccc(Oc2ccnc3cc(OCCO)c4c(c23)OCCO4)c(F)c1` [Example 53, N-(4-((5-(2-hydroxyethoxy)-2,3-dihydro-[1,4]dioxino[2,3-f]quinolin-10-yl)oxy)-3-fluorophenyl)-4-ethoxy-1-(4-fluorophenyl)-2-oxo-1,2-dihydropyridine-3-carboxamide], the IC50 was no more than 50 nM on c-MET kinase; no more than 50 nM in the assay on MHCC97H cells; less than 50 nM in the assay with Ba/F3-AXL cells; less than 50 nM with Ba/F3 LMNA-NTRK1 cells; no more than 50 nM with EBC1 cells.

On to `CCOc1ccn(-c2ccc(F)cc2)c(=O)c1C(=O)Nc1ccc(Oc2ccnc3cc(OC4COC4)c4c(c23)OCCO4)c(F)c1` [Example 64, N-(4-((5-((oxetan-3-yl)oxy)-2,3-dihydro-[1,4]dioxino[2,3-f]quinolin-10-yl)oxy)-3-fluorophenyl)-4-ethoxy-1-(4-fluorophenyl)-2-oxo-1,2-dihydropyridine-3-carboxamide], for which the IC50 on c-MET kinase is no more than 50 nM; in the assay on MHCC97H cells it was 50 to 200 nM; in the assay with Ba/F3-AXL cells it was less than 50 nM; with Ba/F3 LMNA-NTRK1 cells, 50 to 200 nM; in the assay on EBC1 cells, 50 to 200 nM.

`CN1CCN(CCCOc2cc3nccc(Oc4ccc(NC(=O)c5cn(C)c(=O)n(-c6ccc(F)cc6)c5=O)cc4F)c3c3c2OCCO3)CC1` [Example 74, N-(3-fluoro-4-((5-(3-(4-methylpiperazin-1-yl)propoxy)-2,3-dihydro-[1,4]dioxino[2,3-f]quinolin-10-yl)oxy)phenyl)-3-(4-fluorophenyl)-1-methyl-2,4-dioxo-1,2,3,4-tetrahydropyrimidine-5-carboxamide]: the IC50 at c-MET kinase was no more than 50 nM; in the assay with MHCC97H cells, 50 to 200 nM; in the assay on Ba/F3-AXL cells it was less than 50 nM; in the assay on Ba/F3 LMNA-NTRK1 cells, less than 50 nM; with EBC1 cells, no more than 50 nM.

For the compound `CCOc1ccn(-c2ccc(F)cc2)c(=O)c1C(=O)Nc1ccc(Oc2ccnc3cc(OCCCN(C)CCOC)c4c(c23)OCCO4)c(F)c1` [Example 70, N-(4-((5-(3-((2-methoxyethyl)(methyl)amino)propoxy)-2,3-dihydro-[1,4]dioxino[2,3-f]quinolin-10-yl)oxy)-3-fluorophenyl)-4-ethoxy-1-(4-fluorophenyl)-2-oxo-1,2-dihydropyridine-3-carboxamide], the concentration for half-maximal inhibition (IC50) on c-MET kinase is no more than 50 nM; in the assay on MHCC97H cells, no more than 50 nM; in the assay on Ba/F3-AXL cells, less than 50 nM; with Ba/F3 LMNA-NTRK1 cells, less than 50 nM; with EBC1 cells, no more than 50 nM.

With `CCOc1ccn(-c2ccc(F)cc2)c(=O)c1C(=O)Nc1ccc(Oc2ccnc3cc(OCC#N)c4c(c23)OCCO4)c(F)c1` [Example 56, N-(4-((5-(cyanomethoxy)-2,3-dihydro-[1,4]dioxino[2,3-f]quinolin-10-yl)oxy)-3-fluorophenyl)-4-ethoxy-1-(4-fluorophenyl)-2-oxo-1,2-dihydropyridine-3-carboxamide], the concentration for half-maximal inhibition (IC50) is no more than 50 nM on c-MET kinase; no more than 50 nM with MHCC97H cells; less than 50 nM with Ba/F3-AXL cells; less than 50 nM in the assay on Ba/F3 LMNA-NTRK1 cells; no more than 50 nM in the assay on EBC1 cells.

On to `CCOc1ccn(-c2ccc(F)cc2)c(=O)c1C(=O)Nc1ccc(Oc2ccnc3cc(OCCCN4CCOCC4)c4c(c23)OCCO4)cc1Cl` [Example 73, N-(2-chloro-4-((5-(3-morpholinopropoxy)-2,3-dihydro-[1,4]dioxino[2,3-f]quinolin-10-yl)oxy)phenyl)-4-ethoxy-1-(4-fluorophenyl)-2-oxo-1,2-dihydropyridine-3-carboxamide], for which the 50% inhibitory concentration (IC50) at c-MET kinase was no more than 50 nM; in the assay with MHCC97H cells it was no more than 50 nM; in the assay on Ba/F3-AXL cells it was less than 50 nM; in the assay with Ba/F3 LMNA-NTRK1 cells, less than 50 nM; in the assay on EBC1 cells, no more than 50 nM.

On to `CCOc1ccn(-c2ccc(F)cc2)c(=O)c1C(=O)Nc1ccc(Oc2ccnc3cc(OCCCN4CCN(C)CC4)c4c(c23)OCCO4)c(F)c1` [Example 49, N-(3-fluoro-4-((5-(3-(4-methylpiperazin-1-yl)propoxy)-2,3-dihydro-[1,4]dioxino[2,3-f]quinolin-10-yl)oxy)phenyl)-1-(4-fluorophenyl)-4-ethoxy-2-oxo-1,2-dihydropyridine-3-carboxamide], for which the IC50 on c-MET kinase is no more than 50 nM; in the assay with MHCC97H cells, no more than 50 nM; in the assay on Ba/F3-AXL cells it was less than 50 nM; with Ba/F3 LMNA-NTRK1 cells, less than 50 nM; in the assay on EBC1 cells, no more than 50 nM.

Consider `CCOc1ccn(-c2ccc(F)cc2)c(=O)c1C(=O)Nc1ccc(Oc2ccnc3cc(OCCCN4CCOCC4)c4c(c23)OCCO4)c(Cl)c1` [Example 72, N-(4-((5-(3-morpholinopropoxy)-2,3-dihydro-[1,4]dioxino[2,3-f]quinolin-10-yl)oxy)-3-chlorophenyl)-4-ethoxy-1-(4-fluorophenyl)-2-oxo-1,2-dihydropyridine-3-carboxamide], for which the IC50 at c-MET kinase is no more than 50 nM; in the assay with MHCC97H cells, no more than 50 nM; in the assay on Ba/F3-AXL cells it was less than 50 nM; with Ba/F3 LMNA-NTRK1 cells, less than 50 nM; in the assay on EBC1 cells, no more than 50 nM.

Consider `COCCCOc1cc2nccc(Oc3ccc(NC(=O)c4cn(C)c(=O)n(-c5ccc(F)cc5)c4=O)cc3F)c2c2c1OCCO2` [Example 80, N-(3-fluoro-4-((5-(3-methoxypropoxy)-2,3-dihydro-[1,4]dioxino[2,3-f]quinolin-10-yl)oxy)phenyl)-3-(4-fluorophenyl)-1-methyl-2,4-dioxo-1,2,3,4-tetrahydropyrimidine-5-carboxamide], for which the IC50 on c-MET kinase is no more than 50 nM; in the assay with MHCC97H cells it was no more than 50 nM; in the assay with Ba/F3-AXL cells, less than 50 nM; in the assay with Ba/F3 LMNA-NTRK1 cells it was less than 50 nM; with EBC1 cells, no more than 50 nM.

With `CCOc1ccn(-c2ccc(F)cc2)c(=O)c1C(=O)Nc1ccc(Oc2ccnc3cc(OCCCN4CCS(=O)(=O)CC4)c4c(c23)OCCO4)c(F)c1` [Example 51, N-(4-((5-(3-(1,1-dioxidothiomorpholino)propoxy)-2,3-dihydro-[1,4]dioxino[2,3-f]quinolin-1 0-yl)oxy)-3-fluorophenyl)-4-ethoxy-1-(4-fluorophenyl)-2-oxo-1,2-dihydropyridine-3-carboxamide], the IC50 at c-MET kinase is no more than 50 nM; with MHCC97H cells, no more than 50 nM; in the assay with Ba/F3-AXL cells it was less than 50 nM; in the assay with Ba/F3 LMNA-NTRK1 cells, less than 50 nM; in the assay with EBC1 cells, no more than 50 nM.

Consider `CCOc1ccn(-c2ccc(F)cc2)c(=O)c1C(=O)Nc1ccc(Oc2ccnc3cc(OCCCN4CCC(C)(O)CC4)c4c(c23)OCCO4)c(F)c1` [Example 69, N-(4-((5-(3-(4-hydroxy-4-methylpiperidin-1-yl)propoxy)-2,3-dihydro-[1,4]dioxino[2,3-f]quinolin-10-yl)oxy)-3-fluorophenyl)-4-ethoxy-1-(4-fluorophenyl)-2-oxo-1,2-dihydropyridine-3-carboxamide], for which the IC50 at c-MET kinase is no more than 50 nM; in the assay on MHCC97H cells it was 50 to 200 nM; in the assay on Ba/F3-AXL cells, less than 50 nM; in the assay on Ba/F3 LMNA-NTRK1 cells, less than 50 nM; in the assay with EBC1 cells, no more than 50 nM.

Regarding `CCOc1ccn(-c2ccc(F)cc2)c(=O)c1C(=O)Nc1ccc(Oc2ccnc3cc(OC4CCOC4)c4c(c23)OCCO4)c(F)c1` (stereo not drawn) [Example 65, N-(4-((5-((tetrahydrofuran-3-yl)oxy)-2,3-dihydro-[1,4]dioxino[2,3-f]quinolin-10-yl)oxy)-3-fluorophenyl)-4-ethoxy-1-(4-fluorophenyl)-2-oxo-1,2-dihydropyridine-3-carboxamide], the IC50 was no more than 50 nM on c-MET kinase; no more than 50 nM in the assay with MHCC97H cells; less than 50 nM with Ba/F3-AXL cells; 50 to 200 nM with Ba/F3 LMNA-NTRK1 cells; no more than 50 nM in the assay on EBC1 cells.

On to `CCOc1ccn(-c2ccc(F)cc2)c(=O)c1C(=O)Nc1ccc(Oc2ccnc3cc(OCCCO)c4c(c23)OCCO4)c(F)c1` [Example 54, N-(4-((5-(3-hydroxypropoxy)-2,3-dihydro-[1,4]dioxino[2,3-f]quinolin-10-yl)oxy)-3-fluorophenyl)-4-ethoxy-1-(4-fluorophenyl)-2-oxo-1,2-dihydropyridine-3-carboxamide], for which the IC50 on c-MET kinase is no more than 50 nM; in the assay with MHCC97H cells, no more than 50 nM; in the assay with Ba/F3-AXL cells, less than 50 nM; with Ba/F3 LMNA-NTRK1 cells, less than 50 nM; in the assay on EBC1 cells, no more than 50 nM.

On to `CCn1cc(C(=O)Nc2ccc(Oc3ccnc4cc(OCCOC)c5c(c34)OCCO5)c(F)c2)c(=O)n(-c2ccc(F)cc2)c1=O` [Example 44, N-(3-fluoro-4-((5-(2-methoxyethoxy)-2,3-dihydro-[1,4]dioxino[2,3-f]quinolin-10-yl)oxy)phenyl)-3-(4-fluorophenyl)-1-ethyl-2,4-dioxo-1,2,3,4-tetrahydropyrimidine-5-carboxamide], for which the IC50 is no more than 50 nM at c-MET kinase; no more than 50 nM with MHCC97H cells; less than 50 nM in the assay on Ba/F3-AXL cells; less than 50 nM in the assay on Ba/F3 LMNA-NTRK1 cells; no more than 50 nM in the assay on EBC1 cells.
